US20240400712A1, “A PLATFORM TO OBTAIN MONOCLONAL ANTIBODIES DIRECTED AGAINST PROCESSED TUMOR-SPECIFIC ANTIGENS” (MEDITERRANEA THERANOSTIC SRL, priority 2020, published 2024)

How the values were obtained:
ADAM10 = target: T1, ADAM10 (Mus musculus, UniProt O35598); test: Western blot of Trop-2 processing after ADAM10 inhibition or silencing in MTE 4-14/Trop-2 transfectants; assay type: cell-based, murine; details: for concentration found effective (up to): inhibition of Trop-2 cleavage in cells
T1 construct: endogenous in cells; host or cells: MTE 4-14 cells (transformed thymus cells) transfected with Trop-2
T1 sequence (O35598 215-749): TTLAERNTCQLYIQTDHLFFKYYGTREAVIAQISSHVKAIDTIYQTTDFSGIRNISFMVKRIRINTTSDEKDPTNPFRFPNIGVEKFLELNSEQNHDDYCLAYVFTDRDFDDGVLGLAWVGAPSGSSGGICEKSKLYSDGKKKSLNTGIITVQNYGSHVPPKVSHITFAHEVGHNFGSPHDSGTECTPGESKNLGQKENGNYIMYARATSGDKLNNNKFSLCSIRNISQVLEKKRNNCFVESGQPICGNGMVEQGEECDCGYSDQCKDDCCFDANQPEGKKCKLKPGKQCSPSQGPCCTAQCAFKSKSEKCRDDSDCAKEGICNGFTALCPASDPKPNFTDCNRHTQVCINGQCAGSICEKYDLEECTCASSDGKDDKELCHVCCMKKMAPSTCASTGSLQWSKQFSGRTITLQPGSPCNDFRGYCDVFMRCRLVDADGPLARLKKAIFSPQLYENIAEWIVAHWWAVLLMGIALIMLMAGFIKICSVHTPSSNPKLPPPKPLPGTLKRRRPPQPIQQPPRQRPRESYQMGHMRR
Protocol: ADAM 10 activity was inhibited in the MTE 4-14/Trop-2 transfectants by treatment with chemical inhibitors or mRNA silencing, and the effect on Trop-2 processing and on Trop-2-dependent cell growth was evaluated.
A. WB analysis following treatment with the broad-spectrum metalloprotease inhibitor GM6001 or with the specific ADAM10 inhibitor G1254023X (Ludwig, Hundhausen et al. 2005) or ADAM10 siRNA silencing, as indicated. […] T2-p: processed Trop-2; na: native form; pr processed form.
Western blotting was performed as described (El Sewedy, Fomaro et al. 1998). Tumors from experimental animals were rapidly frozen upon surgical removal and stored at −80° C. Frozen samples were quickly thawed and homogenized with a Dounce homogenizer. Cleared homogenates of tumors and cultured cell lysates were analyzed by SDS-PAGE and transferred to nitrocellulose filters. Filters were hybridized with anti-human Trop-2 (affinity-purified polyclonal rabbit antiserum) or anti-ADAM10 antibodies.
Cells were treated with ADAM10 inhibitors for 24 hours at the minimum concentration found to be effective in inhibiting Trop-2 cleavage, then assayed as indicated. The GM6001 metalloprotease family inhibitor (Calbiochem) was dissolved in DMSO and used at 6.5-13 μM for 24 hours; up to 50 μM GM6001 were found effective. The G1254023X selective ADAM10 inhibitor, dissolved in DMSO, was kindly provided by Dr. A. Ludwig. Cells received two doses (10 μM) every 24 hours for 48 hours; up to 20 μM G1254023X were found effective. Control cells received vehicle alone.
(§1) Complementary strategies were utilized for siRNA design. Briefly, Tuschl' criteria were applied, i.e. position in the mRNA, GC content, base composition and flanking sequences (Elbashir, Harborth et al. 2001). Invitrogen (maidesigner.invitrogen.com/maiexpress/) provides a proprietary algorithm that performs a statistical analysis of the target sequence, based on sequence composition, nucleotide content and thermodynamic properties, and compares candidates with validated siRNA sequences. The Whitehead Institute web site (jura.wi.mit.edu/bioc/siRNAext/) combines Tuschl' criteria with predictions of binding energies for both sense and antisense siRNAs and with BLAST filtering of cross-hybridizing sequences (Semizarov, Frost et al. 2003). […] Annealed oligos were subcloned into the pSUPER vector, kindly provided by Dr. R. Bemard (Brummelkamp, Bemards et al. 2002), under the control of the RNA polymerase Ill H1 gene promoter. siRNA expression constructs were transiently transfected MTE 4-14 transfectants, and cell growth was measured. siRNA-targeted transcript levels were quantified by real-time PCR. […]

[1] = system: metastatic triple-negative breast cancer (TNBC); details: cited from earlier work
MTE 4-14 cells = test: In vitro cell growth of MTE 4-14 transfectants after siRNA-mediated inhibition; assay type: cell-based, murine
Protocol: C. In vitro growth curves of MTE 4-14 cells transfected with the empty vector, wtTrop-2 or R87A-T88A Trop-2 upon ADAM10 (upper graphs, black,), MMP9 (lower graphs, black,) or control (human CD133, gray), siRNA-mediated inhibition. Bars: SEM. The p value for the only significant difference (ANOVA analysis) is indicated. Stars indicate post-hoc Bonferroni's t test p values (*≤0.05, ***≤0.001).
Cell transfectants were seeded at 1.5-3.0×10^3 cells/well in 96-well plates (five replica wells per data point). Cell numbers were quantified by staining with crystal violet (Orsulic, Li et al. 2002).
Cell numbers were normalized against a standard reference curve of two-fold serially diluted cell samples.
as §1

Molecule: CNC(=O)[C@H](Cc1c[nH]c2ccccc12)NC(=O)[C@@H](CC(=O)NO)CC(C)C [GM6001]
- concentration found effective (up to) (ADAM10): up to 50 μM

Molecule: Sacituzumab govitecan-hziy
- efficacy in patients [1]: effective in patients with metastatic triple-negative breast cancer (TNBC)

Molecule: CNC(=O)[C@@H](NC(=O)[C@H](CCCc1ccccc1)[C@H](C)N(O)C=O)C(C)(C)C [G1254023X]
- minimum concentration found to be effective in inhibiting Trop-2 cleavage (ADAM10; concentration used on cells, GM6001 for 24 hours, G1254023X two doses every 24 hours for 48 hours): 10 µM
- concentration found effective (up to) (ADAM10): up to 20 μM

B1: ADAM10 siRNA: siRNA targeting murine ADAM10 (NM_007399.3, nt 292-309), SEQ ID NO: 57-58, in pSUPER vector (nucleic acid, listed as Mus musculus)
sense: GATCCCCAGACATTATGAAGGATTATTTCAAGAGAATAATCCTTCATAATGTCTTTTTTGGAAA
antisense: AGCTTTTCCAAAAAAGACATTATGAAGGATTATTCTCTTGAAATAATCCTTCATAATGTCTGGG
- effect on growth of R87A-T88A or empty vector transfectants (MTE 4-14 cells; MTE 4-14 cells transfected with R87A-T88A Trop-2 or empty vector): no effect
- effect on Trop-2 dependent growth in wtTrop-2 transfectants (MTE 4-14 cells; MTE 4-14 cells transfected with wtTrop-2, in vitro proliferation): overrides Trop-2 dependent growth stimulus
- ADAM10 band in WB after siRNA treatment (ADAM10; MTE 4-14/Trop-2 transfectants): disappearance of the corresponding band

B2: siRNAs targeting MMP9: control siRNA targeting murine MMP9 (NM_013599, nt 1780-1798), SEQ ID NO: 59-60 (nucleic acid, listed as Mus musculus)
sense: GATCCCCCCGCAGACCAAGAGGGTTTTTCAAGAGAAAACCCTCTTGGTCTGCGGTTTTTGGAAA
antisense: AGCTTTTCCAAAAACCGCAGACCAAGAGGGTTTTCTCTTGAAAAACCCTCTTGGTCTGCGGGGG
- effect on cell proliferation (MTE 4-14 cells; control siRNA, MTE 4-14 transfectants): no effect on cell proliferation
